Measurements from patent US9345791B2, “Ligands for targeting of S1P receptors for in vivo imaging and treatment of diseases” (Westfaelische Wilhelms-Universitaet Muenster, priority 2011, dated 2016).

Key:
[1] = test system: Lymphocytes (T- and B-cells); experiment: Immunosuppressive activity in vivo: peripheral blood lymphopenia, flow cytometry; design: species or system mice; details: for B cells / CD4+ / CD8+ / WBC: intraperitoneally at 1.25 microgramm/kg body weight, blood drawn 24 hours later; for WBC: peripheral blood; for immunosuppressive action / effectiveness (in words): summary of table 1 in text
Procedure: The compounds of the invention were tested for immunosuppressive biological activity in vivo based on the known ability of S1P analogues to induce peripheral blood lymphopenia due to lymphocyte trapping in secondary lymph organs. The immunosuppressive activity of compound 21 (555558) and of compound 27 (555890) was compared with the corresponding activity a non-fluorinated analogue compound 7 (5551091), and non-ω (or close to ω)-fluorinated compounds (compounds 8 (555535) and 12 (555517)) as well as with FTY720 as a standard. The compounds were injected intraperitoneally at 1.25 microgramm/kg body weight in a total volume of 200 microliter. 24 hours later, blood was drawn from the retroorbital plexus in 17.8 mM EDTA as an anti-coagulant. Lymphocytes (T- and B-cells) were analyzed by flow cytometry as following: After lysis of red blood cells by BD Pharm Lyse (Becton Dickinson) in 50 microliter blood, cells were washed, resuspended in 100 microliter FACS buffer (1% BSA in PBS), and antibodies to CD4, CD8 and B220 (Becton Dickinson) were added (1 microliter antibody per sample each) for 30 minutes at room temperature. After 3 washes, cells were then analyzed by flow cytometry in a Gallios Beckman Coulter flow cytometer.

[2] = test system: G-protein-coupled cell surface receptors (S1PR) designated S1P1-5; details: cited from earlier work

| SMILES | B cells ([1]; cell count) | CD4+ ([1]; cell count) | CD8+ ([1]; cell count) | B cells ([1]; percentage) [%] | CD4+ ([1]; percentage) [%] | CD8+ ([1]; percentage) [%] | WBC [1] | Kd [2] [nM] | immunosuppressive action / effectiveness (in words) [1] | melting point [°C] |
| --- | --- | --- | --- | --- | --- | --- | --- | --- | --- | --- |
| CCC/C=C(\F)CC(N)COP(=O)(O)O (stereo not shown) [Compound B1087] | 2.49 10^6/mL | 0.42 10^6/mL | 0.59 10^6/mL | 35.20 | 5.90 | 8.40 | 7.06 10^6/mL |  |  |  |
| CCC/C=C/CC(N)COP(=O)(O)O (stereo not shown) [Compound B1088] | 2.76 10^6/mL | 0.34 10^6/mL | 0.49 10^6/mL | 38.60 | 4.80 | 6.90 | 7.15 10^6/mL |  |  |  |
| CCCCCCCCCCCCC/C=C/[C@@H](O)[C@@H](N)COP(=O)(O)O [Compound S1P, Sphingosine-1-phosphate] |  |  |  |  |  |  |  | 8 to 20 |  |  |
| CCCCCCCCc1ccc(CCC(N)(CO)CO)cc1 [FTY 720, 2-Amino-2-(4-octylphenethyl)propane-1,3-diol, reference compound] | 0.61 10^6/mL | 0.02 10^6/mL | 0.04 10^6/mL | 20.08 | 1.10 | 0.30 | 3.69 10^6/mL |  |  |  |
| CCC/C=C/CC(N)CO (stereo not shown) [SSS182] | 2.91 10^6/mL | 0.43 10^6/mL | 0.48 10^6/mL | 42.20 | 6.30 | 7.00 | 6.90 10^6/mL |  |  |  |
| CCCCCCCCCCCCCCC(F)CC(N)(CO)CO (stereo not shown) [SSS517, 2-Amino-2-(2-fluorohexadecyl)propan-1,3-diol] | 4.81 10^6/mL | 0.54 10^6/mL | 0.60 10^6/mL | 42.40 | 4.80 | 5.30 | 11.35 10^6/mL |  | very moderate immunosuppressive action | 96 to 98 |
| CCCCCCCCCCCCCCCCC(N)(CO)CF (stereo not shown) [SSS535, 2-Amino-2-(fluoromethyl)octadecan-1-ol] | 3.54 10^6/mL | 0.42 10^6/mL | 0.39 10^6/mL | 50.20 | 6.00 | 5.50 | 7.05 10^6/mL |  | diminishes effectiveness | 52 |
| NC(CO)(CO)CCCCCCCCCCCCCCCCF [SSS558, 2-Amino-2-(16-fluorohexadecyl)propan-1,3-diol] | 1.52 0.04 10^6/mL | 0.15 0.08 10^6/mL | 0.13 0.04 10^6/mL |  |  |  | 3.74 0.70 10^6/mL |  |  | 77 |
| CCCCCCCCCCCCCCC(F)CC(N)(CO)CO.Cl (stereo not shown) [SSS564, 2-Amino-2-(2-fluorohexadecyl)propan-1,3-diol hydrochloride] | 5.52 10^6/mL | 0.65 10^6/mL | 0.98 10^6/mL | 42.20 | 5.00 | 7.50 | 13.07 10^6/mL |  |  | 108 to 110 |
| CCCCCCCCCCCCC/C=C/CC(N)(CO)CO [SSS822, (E)-2-Amino-2-(hexadec-2-en-1-yl)propane-1,3-diol] | 1.17 0.33 10^6/mL | 0.10 0.01 10^6/mL | 0.12 0.05 10^6/mL |  |  |  | 5.02 1.04 10^6/mL |  |  | 57 |
| CN(C)c1cccc2c(S(=O)(=O)NCCCCCCCCCCCCCCCCC(N)(CO)CO)cccc12 [SSS846, N-(17-Amino-18-hydroxy-17-(hydroxymethyl)octadecyl)-5-(dimethylamino)naphthalene-1-sulfonamide] | 5.32 10^6/mL | 0.98 10^6/mL | 0.52 10^6/mL | 57.30 | 10.60 | 5.60 | 9.28 10^6/mL |  |  | 72 to 75 |
| CCCCCCCCCCCCC/C=C(\F)CC(N)(CO)CO [SSS862, (Z)-2-Amino-2-(2-fluorohexadec-2-en-1-yl)propane-1,3-diol] | 3.23 10^6/mL | 0.27 10^6/mL | 0.41 10^6/mL | 60.90 | 5.00 | 7.80 | 5.31 10^6/mL |  |  | 68 to 70 |
| CCCCCCCCCCCCC/C=C(/F)CC(N)(CO)CO [SSS864, (E)-2-Amino-2-(2-fluorohexadec-2-en-1-yl)propane-1,3-diol] | 3.41 10^6/mL | 0.28 10^6/mL | 0.37 10^6/mL | 64.70 | 5.40 | 7.00 | 5.27 10^6/mL |  |  | 74 |
| NC(CO)(CO)CCCCCCCCCCCCCCCF [SSS890, 2-Amino-2-(15-fluoropentadecyl)propane-1,3-diol] |  |  |  |  |  |  |  |  |  | 85 |
| CCCCCCCCCCCCCCC(N)(CO)CO [SSS943, 2-Amino-2-tetradecylpropane-1,3-diol] | 0.60 10^6/mL | 0.04 10^6/mL | 0.04 10^6/mL | 35.21 | 2.25 | 2.35 | 1.73 10^6/mL |  |  |  |
| CCCCCCCCCCCCCCCCC(N)(CO)CO [SSS1091, 2-Amino-2-hexadecylpropane-1,3-diol] | 1.27 0.26 10^6/mL | 0.09 0.02 10^6/mL | 0.08 0.01 10^6/mL |  |  |  | 4.14 0.60 10^6/mL |  |  |  |
| CCCCCCCCc1ccc(C(O)CC(N)(CO)CO)cc1 (stereo not shown) [SSS 563, 3-Amino-3-(hydroxymethyl)-1-(4-octylphenyl)butane-1,4-diol] |  |  |  |  |  |  |  |  |  | 74 to 76 |
| NC(CO)(CO)CCc1ccc(CCCCCCF)cc1 [SSS 944, 2-Amino-2-(4-(6-fluorohexyl)phenethyl)propane-1,3-diol] |  |  |  |  |  |  |  |  |  | 108 |
